According to article PMC12280724 (Frontiers in Pharmacology, 2025):

Tests used:
[1] = In vivo biodistribution of [^99mTc]Tc-carvedilol in healthy Swiss albino mice; settings: for [^99mTc]Tc-carvedilol percentages of injected dose per Gram organ: i.v. tail vein
Excerpt: For biodistribution and receptor occupancy studies, 24 healthy adult Swiss albino mice (12 males and 12 females, aged 10–12 weeks, weighing 25–30 g) were obtained from the Egyptian National Research Center. Mice outside the 25–30 g weight range were excluded to ensure consistency in the biodistribution outcomes. Prior to the study, animals were housed in groups of four with ad libitum access to food and water and underwent a 2-week acclimatization period. After this adaptation phase, the mice were randomly assigned to the study groups using the lot-drawing method.
Given ^99mTc’s physical half-life of approximately 6 h, shorter imaging and sampling intervals are generally preferred to maximize radioactive signal fidelity and minimize decay-related variability. At 24 h post-injection, the residual ^99mTc activity could fall below quantifiable thresholds, potentially compromising the precision of biodistribution data. To prevent this, all data collection was restricted to early post-injection intervals—specifically […]—when radioactivity levels remain within optimal detection ranges for gamma counting. By omitting the 24 h time point altogether, the study design ensured that the radiotracer signal would be robust enough to yield statistically reliable biodistribution profiles without being confounded by the isotope’s exponential decay. Additionally, prior pilot studies were conducted to empirically determine the time window during which the radiochemical integrity and quantification signal-to-noise ratio remained analytically valid. These informed the exclusion of late-phase sampling and reinforced confidence in the reliability of kinetic data collected within the defined 6 h observation window. Therefore, six mice were euthanized at each selected time point via standardized cervical dislocation performed by trained personnel in accordance with institutional animal care guidelines. The procedure followed the AVMA Guidelines for the Euthanasia of Animals ([Kirkwood, 2013]), ensuring it was rapid, humane, and reproducible. To ensure procedural consistency, all cervical dislocations were performed by the same experienced researcher, following pre-established protocols that involved correct animal positioning, anatomical landmark identification, and verification of death through cessation of heartbeat and respiration. Immediately postmortem, body weight was recorded, and blood was collected via cardiac puncture.
Organ harvesting included the collection of the heart, liver, lungs, kidneys, spleen, stomach, intestines, muscle (right leg), bone, and brain. Following dissection, tissues were gently rinsed with isotonic saline to remove residual blood, promptly weighed, kept at low temperatures, and immediately subjected to gamma counting to preserve radiochemical integrity and avoid post-collection decay artifacts. No storage or freezing was used to prevent degradation or leakage of [^99mTc]Tc-carvedilol. Sample processing occurred in a shielded, on-site laboratory adjacent to the dissection area, ensuring minimal delay—typically less than 2 to 3 minutes—between collection and measurement.
To ensure methodological rigor and reproducibility, both experimental and computational components of the study were supported by a structured statistical framework. A total of 24 healthy albino mice (12 males, 12 females), aged 10–12 weeks and weighing 25 ± 3 g, were selected based on uniform health status, age, and weight to minimize inter-animal variability. Animals were maintained under controlled laboratory conditions (12-h light/dark cycle, standardized humidity, and temperature) with unrestricted access to food and water. For biodistribution analysis, animals were randomly assigned to four experimental groups, each consisting of six mice, each representing a distinct post-injection time point (15, 30, 60, and 120 min). […]

[2] = In vitro stability in human serum at 37 °C; assay type: in vitro ADME; settings: at 24 h
Protocol: Aliquots (0.2 mL) were withdrawn at predefined intervals and analyzed using a paper chromatographic technique ([Rathmann et al., 2019]). Chromatographic separation was carried out using a Shimadzu system ([Shimadzu Corporation]) (Genzo Shimadzu Sr., Kyoto, Japan), comprising LC-9A pumps, a Rheodyne injector (Model 7125), and an ultraviolet spectrophotometer detector (SPD-6A, Shimadzu). The mobile phase consisted of acetonitrile and water (65:35) containing 0.1% trifluoroacetic acid, delivered at a flow rate of 1.0 mL/min. […] Separated fractions were collected for up to 12 min, and the radiochemical integrity was subsequently evaluated using a well-type NaI(Tl) ([Al Oraini, 2018]) detector linked to a single-channel analyzer.

With `COc1ccccc1OCC[N]1CC(COc2cccc3[nH]c4ccccc4c23)[O][99Tc]12(=[O])[O]C(COc1cccc3[nH]c4ccccc4c13)C[N]2CCOc1ccccc1OC` (racemic) [[^99mTc]Tc-carvedilol] the “[^99mTc]Tc-carvedilol percentages of injected dose per Gram organ” value ([1]; Kidneys, 60 min post-injection) was 24.392 ± 0.345 % ID/g organ, the “[^99mTc]Tc-carvedilol percentages of injected dose per Gram organ” value ([1]; Kidneys, 120 min post-injection) was 29.284 ± 0.012 % ID/g organ and the “Residual [^99mTc]Tc-carvedilol percentages of injected dose per Gram in non-targeted organs” value ([1]; Liver row, 15 min post-injection) was 92.740 ± 0.03 % ID/g. For the same compound, the “Residual [^99mTc]Tc-carvedilol percentages of injected dose per Gram in non-targeted organs” value ([1]; Liver row, 30 min post-injection) was 95.149 ± 0.01 % ID/g, the “Residual [^99mTc]Tc-carvedilol percentages of injected dose per Gram in non-targeted organs” value ([1]; Liver row, 120 min post-injection) was 93.895 ± 0.04 % ID/g and the “[^99mTc]Tc-carvedilol percentages of injected dose per Gram organ” value ([1]; Liver, 15 min post-injection) was 7.255 ± 0.023 % ID/g organ. The “[^99mTc]Tc-carvedilol percentages of injected dose per Gram organ” value ([1]; Liver, 30 min post-injection) was 4.841 ± 0.568 % ID/g organ, the “[^99mTc]Tc-carvedilol percentages of injected dose per Gram organ” value ([1]; Liver, 120 min post-injection) was 6.045 ± 1.020 % ID/g organ and the “Residual [^99mTc]Tc-carvedilol percentages of injected dose per Gram in non-targeted organs” value ([1]; Lung row, 15 min post-injection) was 98.710 ± 0.01 % ID/g. The “Residual [^99mTc]Tc-carvedilol percentages of injected dose per Gram in non-targeted organs” value ([1]; Lung row, 30 min post-injection) was 92.205 ± 0.01 % ID/g, the “Residual [^99mTc]Tc-carvedilol percentages of injected dose per Gram in non-targeted organs” value ([1]; Lung row, 60 min post-injection) was 95.410 ± 0.00 % ID/g and the “Residual [^99mTc]Tc-carvedilol percentages of injected dose per Gram in non-targeted organs” value ([1]; Lung row, 120 min post-injection) was 95.371 ± 0.04 % ID/g. The “[^99mTc]Tc-carvedilol percentages of injected dose per Gram organ” value ([1]; Lung, 15 min post-injection) was 1.290 ± 0.232 % ID/g organ, the “[^99mTc]Tc-carvedilol percentages of injected dose per Gram organ” value ([1]; Lung, 30 min post-injection) was 7.795 ± 0.060 % ID/g organ and the “[^99mTc]Tc-carvedilol percentages of injected dose per Gram organ” value ([1]; Lung, 60 min post-injection) was 4.590 ± 0.000 % ID/g organ. For the same compound, the “[^99mTc]Tc-carvedilol percentages of injected dose per Gram organ” value ([1]; Lung, 120 min post-injection) was 4.579 ± 0.111 % ID/g organ, the “Residual [^99mTc]Tc-carvedilol percentages of injected dose per Gram in non-targeted organs” value ([1]; Muscle row, 15 min post-injection) was 99.309 ± 0.02 % ID/g and the “Residual [^99mTc]Tc-carvedilol percentages of injected dose per Gram in non-targeted organs” value ([1]; Muscle row, 30 min post-injection) was 99.727 ± 0.01 % ID/g. The “Residual [^99mTc]Tc-carvedilol percentages of injected dose per Gram in non-targeted organs” value ([1]; Muscle row, 60 min post-injection) was 99.321 ± 0.02 % ID/g, the “Residual [^99mTc]Tc-carvedilol percentages of injected dose per Gram in non-targeted organs” value ([1]; Muscle row, 120 min post-injection) was 98.449 ± 0.03 % ID/g and the “[^99mTc]Tc-carvedilol percentages of injected dose per Gram organ” value ([1]; Muscle, 15 min post-injection) was 0.671 ± 0.195 % ID/g organ. The “[^99mTc]Tc-carvedilol percentages of injected dose per Gram organ” value ([1]; Muscle, 30 min post-injection) was 0.263 ± 0.215 % ID/g organ, the “[^99mTc]Tc-carvedilol percentages of injected dose per Gram organ” value ([1]; Muscle, 60 min post-injection) was 0.659 ± 0.217 % ID/g organ and the “[^99mTc]Tc-carvedilol percentages of injected dose per Gram organ” value ([1]; Muscle, 120 min post-injection) was 1.521 ± 0.201 % ID/g organ. The “Residual [^99mTc]Tc-carvedilol percentages of injected dose per Gram in non-targeted organs” value ([1]; Spleen row, 15 min post-injection) was 98.118 ± 0.02 % ID/g, the “Residual [^99mTc]Tc-carvedilol percentages of injected dose per Gram in non-targeted organs” value ([1]; Spleen row, 30 min post-injection) was 95.816 ± 0.01 % ID/g and the “Residual [^99mTc]Tc-carvedilol percentages of injected dose per Gram in non-targeted organs” value ([1]; Spleen row, 60 min post-injection) was 93.319 ± 0.05 % ID/g. For the same compound, the “Residual [^99mTc]Tc-carvedilol percentages of injected dose per Gram in non-targeted organs” value ([1]; Spleen row, 120 min post-injection) was 97.701 ± 0.02 % ID/g, the “[^99mTc]Tc-carvedilol percentages of injected dose per Gram organ” value ([1]; Spleen, 15 min post-injection) was 1.852 ± 0.151 % ID/g organ and the “[^99mTc]Tc-carvedilol percentages of injected dose per Gram organ” value ([1]; Spleen, 30 min post-injection) was 4.174 ± 0.019 % ID/g organ. The “[^99mTc]Tc-carvedilol percentages of injected dose per Gram organ” value ([1]; Spleen, 60 min post-injection) was 6.631 ± 0.019 % ID/g organ, the “[^99mTc]Tc-carvedilol percentages of injected dose per Gram organ” value ([1]; Spleen, 120 min post-injection) was 2.279 ± 0.126 % ID/g organ and the “Residual [^99mTc]Tc-carvedilol percentages of injected dose per Gram in non-targeted organs” value ([1]; Stomach row, 15 min post-injection) was 98.807 ± 0.01 % ID/g. For the same compound, the “Residual [^99mTc]Tc-carvedilol percentages of injected dose per Gram in non-targeted organs” value ([1]; Stomach row, 30 min post-injection) was 98.433 ± 0.04 % ID/g, the “Residual [^99mTc]Tc-carvedilol percentages of injected dose per Gram in non-targeted organs” value ([1]; Stomach row, 60 min post-injection) was 95.706 ± 0.03 % ID/g and the “Residual [^99mTc]Tc-carvedilol percentages of injected dose per Gram in non-targeted organs” value ([1]; Stomach row, 120 min post-injection) was 97.717 ± 0.06 % ID/g. For the same compound, the “[^99mTc]Tc-carvedilol percentages of injected dose per Gram organ” value ([1]; Stomach, 15 min post-injection) was 1.193 ± 0.201 % ID/g organ, the “[^99mTc]Tc-carvedilol percentages of injected dose per Gram organ” value ([1]; Stomach, 30 min post-injection) was 1.524 ± 0.259 % ID/g organ and the “[^99mTc]Tc-carvedilol percentages of injected dose per Gram organ” value ([1]; Stomach, 60 min post-injection) was 4.263 ± 0.259 % ID/g organ. The “[^99mTc]Tc-carvedilol percentages of injected dose per Gram organ” value ([1]; Stomach, 120 min post-injection) was 2.239 ± 0.065 % ID/g organ and the serum stability [2] was > 92%.
